Where a name gives a salt, the structure may show the parent alone. Read-outs that look alike come from different tables or passages of the source.
Experiments:
[1] = biological target: T1, recombinant human-5HT1A receptors (Homo sapiens, UniProt P08908); test: Displacement assay with [3H]-5-HT (1 nM) on recombinant human 5HT1A receptors expressed in 3T3 cells of mice (test method a); assay type: binding
T1 construct: expressed in transfected cells; host or cells: 3T3 cells of mice (membranes)
T1 sequence (P08908 1-422): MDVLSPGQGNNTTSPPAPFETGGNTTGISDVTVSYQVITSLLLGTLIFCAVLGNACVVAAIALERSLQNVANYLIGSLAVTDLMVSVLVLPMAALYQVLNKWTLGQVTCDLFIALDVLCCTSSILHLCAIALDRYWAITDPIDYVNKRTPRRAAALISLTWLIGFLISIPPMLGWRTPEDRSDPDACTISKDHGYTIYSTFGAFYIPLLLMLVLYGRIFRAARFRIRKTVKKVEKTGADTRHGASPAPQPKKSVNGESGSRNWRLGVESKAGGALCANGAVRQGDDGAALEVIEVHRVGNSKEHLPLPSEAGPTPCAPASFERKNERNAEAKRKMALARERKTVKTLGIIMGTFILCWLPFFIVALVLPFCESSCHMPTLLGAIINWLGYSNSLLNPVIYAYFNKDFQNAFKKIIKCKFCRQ
Procedure: (§1) The binding of compounds of formula I in accordance with the invention to serotonin receptors was determined in vitro by standard methods. The compounds were investigated in accordance with the assays given hereinafter:
[L] is the concentration of ligand and the KD value is the dissociation constant of the ligand.

5HT2C receptor [2] = test: [3H]-5-HT binding assay, 5HT2C receptor (test method b); conditions: radioligand [3H]-5-HT, pki = -log10 Ki
Procedure: as §1
b) For the binding to the 5HT2C receptor in accordance with the [3H]-5-HT binding assay according to the method of S.J Peroutka et al., Brain Research 584, 191-196 (1992).
(§2) The pki values (pki =-log10 Ki) of the test substances are given. The ki value is defined by the following formula: [formula] in which the IC50 values are those concentrations of test compounds in nmol by which 50% of the receptor-bound ligands are displaced. [L] is the concentration of ligand and the KD value is the dissociation constant of the ligand.

5HT2A receptor = 5HT2A receptor (Homo sapiens, UniProt P28223); test: [3H]-DOB binding assay, 5HT2A receptor (test method c)
Procedure: as §1
c) For the binding to the 5HT2A receptor in accordance with the [3H]-DOB binding assay according to the method of T. Branchek et al., Molecular Pharmacology 38, 604-609 (1990).
as §2

5HT2C receptor [3] = biological target: T2, 5HT2C receptor (Rattus norvegicus, UniProt P08909); test: Penile erection (rats); assay type: in vivo; conditions: 0.75 h, within 45 minutes after administration
T2 construct: from tissue; host or cells: living rats (in vivo, s.c. dosing)
T2 sequence (P08909 33-460): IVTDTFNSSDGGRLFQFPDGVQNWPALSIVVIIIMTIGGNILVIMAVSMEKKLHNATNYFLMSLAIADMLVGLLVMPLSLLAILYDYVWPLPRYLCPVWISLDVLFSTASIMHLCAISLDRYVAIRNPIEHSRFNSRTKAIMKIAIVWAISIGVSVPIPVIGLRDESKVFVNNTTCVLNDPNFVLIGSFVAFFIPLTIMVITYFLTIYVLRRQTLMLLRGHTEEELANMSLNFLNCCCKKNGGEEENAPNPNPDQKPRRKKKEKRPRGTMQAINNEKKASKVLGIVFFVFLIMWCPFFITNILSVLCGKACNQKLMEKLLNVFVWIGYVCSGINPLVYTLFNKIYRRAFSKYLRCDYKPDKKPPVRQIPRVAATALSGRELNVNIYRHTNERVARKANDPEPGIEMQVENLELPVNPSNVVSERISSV
Procedure: It has been shown that penile erection is dependent on stimulation of the 5HT2C receptor (see Berendsen & Broekkamp, Eur. J. Pharmacol. 135, 179-184 (1987)).
The number of penile erections was determined within 45 minutes after administration of the test substance. The ED50 is the dose which causes 50% of these erections.

[4] = 5HT1A, radioligand [3H]-5-HT (1 nM), pki = -log10 Ki, read-out: pKi, test method a (converted)
[5] = po, p.o., read-out: ED50 penile erection, p.o.
[6] = sc, s.c., read-out: ED50 penile erection, s.c.

5HT2A receptor, sequence (P28223 whole entry): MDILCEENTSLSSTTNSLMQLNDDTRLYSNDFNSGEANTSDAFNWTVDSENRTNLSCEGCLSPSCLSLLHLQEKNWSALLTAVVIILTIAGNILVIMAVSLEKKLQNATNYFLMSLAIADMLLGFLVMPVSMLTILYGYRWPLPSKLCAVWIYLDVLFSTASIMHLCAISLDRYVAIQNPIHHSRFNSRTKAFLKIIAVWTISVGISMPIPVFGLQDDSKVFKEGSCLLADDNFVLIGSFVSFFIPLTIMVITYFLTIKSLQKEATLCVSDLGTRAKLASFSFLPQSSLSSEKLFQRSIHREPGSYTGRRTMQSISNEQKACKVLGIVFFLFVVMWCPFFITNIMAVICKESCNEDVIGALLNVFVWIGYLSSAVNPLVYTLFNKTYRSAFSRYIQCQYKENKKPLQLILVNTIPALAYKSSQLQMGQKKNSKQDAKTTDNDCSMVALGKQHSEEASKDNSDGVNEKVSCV

Structure (SMILES)	Ki [1, 4]	pKi, test method b (5HT2C receptor [2])	Ki (5HT2A receptor)	ED50 (5HT2C receptor [3]; [5])	ED50 (5HT2C receptor [3]; [6])	Ki [1]
Cc1ccc2c(c1)-c1c(cnn1C[C@H](C)N)C2(C)C [Example 3, (S)-2-(4,4,7-trimethyl-1,4-dihydro-indeno[2,1-c]pyrazol-1-yl)-1-methyl-ethylamine fumarate (1:1)]	4170 nM	8.32	229 nM			
CCOc1ccc2c(c1)-c1c(cnn1C[C@H](C)N)C2 [Example 18, (S)-2-(7-ethoxy-1,4-dihydro-indeno[2,1-c]pyrazol-1-yl)-1-methyl-ethylaminefumarate (1:1)]	1000 nM	8.48	49 nM	2.3 mg/kg	0.7 mg/kg	
COc1ccc2c(c1)-c1c(cnn1CC(C)N)C2(C)C (racemic) [Example 6, (RS)-2-(7-methoxy-4,4-dimethyl-1,4-dihydroindeno[2,1-c]pyrazol-1-yl)-1-methyl-ethylamine fumarate (1:1)]		8.33	49 nM			1820 nM
COc1ccc2c(c1)-c1c(cnn1C[C@H](C)N)C2 [Example 2, (S)-2-(7-methoxy-1,4-dihydro-indeno[2,1-c]pyrazol-1-yl)-1-methyl-ethylamine fumarate (1:1)]		8.57	49 nM	1.4 mg/kg	0.32 mg/kg	339 nM
COc1ccc2c(c1)-c1c(c(C)nn1CC(C)N)C2 (racemic) [Example 8]		7.13	832 nM			6760 nM
COc1ccc2c(c1)-c1c(cnn1CC(C)N)CC2.O=C(O)/C=C/C(=O)O (racemic) [Example 15, (RS)-2-(4,5-dihydro-8-methoxy-1H-benz[g]indazol-1-yl)-1-methyl-ethylamine fumarate (1:1)]		8.28	81.3 nM			1290 nM
CC(N)Cn1ncc2c1-c1cc(F)ccc1C2 (racemic) [Example 11, (RS)-2-(7-fluoro-1,4-dihydroindeno[2,1-c]pyrazol-1-yl)-1-methyl-ethylaminefumarate (1:1)]	1780 nM	7.51	263 nM			
COc1ccc2c(c1)Cc1cnn(CC(C)N)c1-2 (racemic) [Example 14, (RS)-2-(6-methoxy-1,4-dihydroindeno[2,1-c]pyrazol-1-yl)-1-methyl-ethylamine fumarate (1:1)]	2340 nM	6.70	1550 nM			
COc1ccc2c(c1)-c1c(cnn1C[C@H](C)N)C2(C)C [Example 4, (S)-2-(7-methoxy-4,4-dimethyl-1,4-dihydroindeno[2,1-c]pyrazol-1-yl)-1-methyl-ethylamine fumarate (1:1)]		8.65	37.2 nM			2630 nM
Cc1ccc2c(c1)-c1c(cnn1CC(C)N)C2 (racemic) [Example 10, (RS)-2-(7-methyl-1,4-dihydroindeno[2,1-c]pyrazol-1-yl)-1-methyl-ethylamine fumarate (1:1)]	1660 nM	8.32	50.1 nM			
Cc1ccc2c(c1)-c1c(cnn1CC(C)N)C2(C)C (racemic) [Example 5, (RS)-2-(4,4,7-trimethyl-1,4-dihydroindeno[2,1-c]pyrazol-1-yl)-1-methyl-ethylamine fumarate (1:1)]	631 nM	7.90	191 nM			
CCOc1ccc2c(c1)-c1c(cnn1C[C@@H](C)N)C2 [Example 17, (R)-2-(7-ethoxy-1,4-dihydro-indeno[2,1-c]pyrazol-1-yl)-1-methyl-ethylaminefumarate (1:1)]		7.40	209 nM			
COc1ccc2ccc3cnn(CC(C)N)c3c2c1 (racemic) [Example 16, (RS)-2-(8-methoxy-1H-benz[g]indazol-1-yl)-1-methyl-ethylamine fumarate (1:0.5)]		8.94	25.1 nM			200 nM
COc1ccc2c(c1)-c1c(cnn1CC(C)N)C2 (racemic) [Example 1, (RS)-2-(7-methoxy-1,4-dihydro-indeno[2,1-c]pyrazol-1-yl)-1-methyl-ethylamine fumarate (1:1)]		8.26	93.3 nM	3.2 mg/kg	0.32 mg/kg	355 nM
CC(N)Cn1ncc2c1-c1cc(F)ccc1C2(C)C (racemic) [Example 12, (RS)-2-(7-fluoro-4,4-dimethyl-1,4-dihydroindeno[2,1-c]pyrazol-1-yl)-1-methyl-ethylamine fumarate (1:1)]		7.72	141 nM			1230 nM
CCOc1ccc2c(c1)-c1c(cnn1CC(C)N)C2 (racemic) [Example 13, (RS)-2-(7-ethoxy-1,4-dihydroindeno[2,1-c]pyrazol-1-yl)-1-methyl-ethylaminefumarate (1:1)]	1200 nM	8.38	49 nM	2.7 mg/kg	0.5 mg/kg	
COc1ccc2c(c1)-c1c(cnn1C[C@@H](C)N)C2 [Example 7, (R)-2-(7-methoxy-1,4-dihydro-indeno[2,1-c]pyrazol-1-yl)-1-methyl-ethylamine fumarate (1:1)]		7.73	363 nM			2450 nM

From patent publication US5561150A, “Tricyclic pyrazole derivatives” (Hoffman-La Roche Inc., priority 1994, dated 1996)
